For 25 compounds, IC50 results are on record in US10774051B2, “6-membered heterocyclic derivatives and pharmaceutical composition comprising the same” (Shionogi & Co., Ltd., priority 2015, dated 2020).

As a reminder, the IC50 is the concentration at which inhibition is half-maximal.

In this test the target is human P2X7 receptor (Homo sapiens, UniProt Q99572, R270H/Y155H). In words: Evaluation of human P2X7 receptor inhibitory activity (Yo-Pro uptake, BzATP stimulation, FLIPR TETRA). Format: cell-based. Put shortly: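 1321N1 cells stably expressing human P2X7 (T606C/G952A SNP variant), in HBSS buffer pH 7.4-7.5 with Yo-Pro, stimulated with BzATP; compound added 8 min after agonist. Fluorescence followed for 20 min on FLIPR; max-minus-min change gave % inhibition, IC50 by logistic fit.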

[1] abbreviates: 1321N1 cells stably expressing human P2X7 receptor, BzATP stimulation, Yo-Pro uptake, read-out: IC50 (antagonistic activity for the human P2X7 receptor), class symbol.
[2] abbreviates: antagonistic activity for the human P2X7 receptor, read-out: IC50.

Read-outs that look alike come from different tables or passages of the source.

Consider `COc1cn(Cc2ccc(F)c(Cl)c2)c(Nc2cccc(C(F)(F)F)c2C)nc1=O` [Compound I-0468], for which the IC50 under setting [1] was in the range of 10 to 100 nM.

Regarding `COc1ccc(Nc2nc(=O)c(C#N)cn2Cc2cc(F)c(F)c(F)c2)c(C)c1` [Compound I-1112], under setting [2], the IC50 fell in the range of 10 to 100 nM.

On to `CCOc1cc(C)c(Nc2nc(=O)c(OC)cn2Cc2cc(F)cc(Cl)c2)cc1C` [Compound I-0384], for which the half-maximal inhibitory concentration (IC50) (1321N1 cells stably expressing human P2X7 receptor, BzATP stimulation, Yo-Pro uptake, read-out: IC50 (antagonistic activity for the human P2X7 receptor)) turned out to be 10 nM.

Regarding `COc1cn(Cc2ccc(F)c(Cl)c2)c(Nc2cc3nc(C)sc3cc2C)nc1=O` [Compound I-0746], the IC50 under setting [2] fell in the range of 10 to 100 nM.

As to `CCc1cc(Cl)ccc1Nc1nc(=O)c(OC)cn1Cc1cc(F)cc(F)c1` [Compound I-0542], the IC50 under setting [1] was in the range of 10 to 100 nM.

Consider `COc1cn(Cc2ccccc2)c(Nc2cccc(-n3cccc3)c2C)nc1=O` [Compound I-0091], for which, under setting [1], the IC50 was 100 to 500 nM.

Turning to `COc1cn(Cc2cc(F)cc(F)c2)c(Nc2cc(Cl)c(Cl)cc2C)nc1=O` [Compound I-0541], the IC50 under setting [1] lay in the range of 10 to 100 nM.

With `COc1ccc(C)c(Nc2nc(=O)cnn2Cc2cc(F)c(F)c(F)c2)c1` [Compound I-1282], the IC50 under setting [2] was less than 10 nM.

On to `CCOc1ccc(Nc2nc(=O)c(F)cn2Cc2cc(F)cc(F)c2)c(C)c1` [Compound I-1047], for which, under setting [2], the IC50 was 10 to 100 nM.

Take `COc1cn(Cc2ccc(Cl)c(Cl)c2)c(Nc2cccc(Cl)c2C)nc1=O` [Compound I-0296]: the IC50 under setting [1] is 10 to 100 nM.

As for `COc1cn(Cc2cc(F)c(F)c(F)c2)c(Nc2cc(C)c(F)cc2C)nc1=O` [Compound I-0712], under setting [2], the IC50 was less than 10 nM.

Turning to `CCOc1ccc(C)c(Nc2nc(=O)c(OC)cn2Cc2cc(F)c(F)c(F)c2)c1` [Compound I-0862], the IC50 under setting [2] was less than 10 nM.

For the compound `CCc1ccccc1Nc1nc(=O)c(OC)cn1Cc1cc(F)cc(Cl)c1` [Compound I-0435], the IC50 under setting [1] fell in the range of 10 to 100 nM.

`COc1ccc(Nc2nc(=O)c(OC)cn2Cc2cc(F)cc(Cl)c2)c(C)c1` [Compound I-0608]: under setting [2], the IC50 lay in the range of 10 to 100 nM.

`CCNC(=O)c1cn(Cc2ccccc2)c(Nc2cccc(Cl)c2C)nc1=O` [Compound I-0078]: the IC50 under setting [1] lay in the range of 100 to 500 nM.

Turning to `COc1cn(Cc2ccccc2)c(Nc2cccc(CO)c2C)nc1=O` [Compound I-0110], the IC50 under setting [1] is 100 to 500 nM.

Take `COc1ccc(Nc2nc(=O)c(OC)cn2Cc2ccc(F)c(Cl)c2)c(C)c1` [Compound I-0227]: the IC50 under setting [1] is 10 to 100 nM.

As for `COc1cn(Cc2ccccc2)c(Nc2ccc(Cl)c(Cl)c2Cl)nc1=O` [Compound I-0132], the IC50 under setting [1] lay within 100 to 500 nM.

Take `COc1cc(Nc2nc(=O)c(F)cn2Cc2ccc(F)c(F)c2)c(C)cc1Cl` [Compound I-0993]: under setting [2], the IC50 was less than 10 nM.

Take `Cc1c(Cl)cccc1Nc1nc(=O)c(NC(=O)OC(C)(C)C)cn1Cc1ccccc1` [Compound I-0021]: the 50% inhibitory concentration (IC50) under setting [1] was 100 to 500 nM.

In the case of `COc1cn(Cc2ccc(F)c(Cl)c2)c(Nc2ccc3nc(C)sc3c2C)nc1=O` [Compound I-0859], the IC50 under setting [2] was in the range of 10 to 100 nM.

For `COc1cn(Cc2ccccc2)c(Nc2ccccc2C)nc1=O` [Compound I-0061], the 50% inhibitory concentration (IC50) under setting [1] fell in the range of 500 to 1000 nM.

For the compound `CCc1cc(OC)c(OC)cc1Nc1nc(=O)c(OC)cn1Cc1cccc(F)c1` [Compound I-0269], under setting [1], the IC50 is less than 10 nM.

On to `COc1cn(Cc2ccc(F)c(F)c2)c(Nc2cc(Cl)c(Cl)cc2C)nc1=O` [Compound I-0518], for which the IC50 under setting [1] lay in the range of 10 to 100 nM.

As for `COc1cn(Cc2ccc(F)c(C(F)(F)F)c2)c(Nc2cccc(Cl)c2C)nc1=O` [Compound I-0635], the 50% inhibitory concentration (IC50) under setting [2] is 10 to 100 nM.
